The values below come from patent US7977365B2 (priority 2006, dated 2011).

Like-named read-outs stand apart in the source and are kept apart here.

Data set [1] concerns Lassa GP-pseudotyped-virus. The data set is described as follows: microbe, parasite or virus in culture. In kind it is cell-based, Lassa fever virus. The settings on record: for EC50: Human immunodeficiency virus 1, read-out: Activity against Lassa GP-pseudotyped-virus EC50.
Data set [2] deals with Lassa fever virus (Josiah strain). The data set is described as follows: organism not typed. The following applies: read-out: Activity vs. LFV EC50. It is filed as cell-based.
For another data set, the system named is LASV GP. The data set is described as follows: organism not typed. It is filed as cell-based. The following applies: HEK-293T.
Data set [3] deals with envelope of the New World arenavirus Guanarito. The data set is described as follows: microbe, parasite or virus in culture. In kind it is cell-based. The following applies: read-out: EC50, Guanarito envelope pseudotyped viral infection.
Data set [4] relates to envelope of the New World arenavirus Tacaribe. The data set can be described thus: microbe, parasite or virus in culture. The settings on record: read-out: EC50, Tacaribe envelope pseudotyped viral infection. It is filed as cell-based.
A further data set concerns LCMV GP. The data set is described as follows: organism not typed. It is filed as cell-based. The settings on record: HEK-293T, 72 h, read-out: IC50 ± SEM, LCMV (wt) GP pseudotype.
The subject of the next data set is Pichinde GP. The data set is described as follows: organism not typed. In kind it is cell-based. The settings on record: HEK-293T, 72 h, read-out: IC50 ± SEM, Pichinde (wt) GP pseudotype.
In a further data set the test system is Junín GP. The data set is described as follows: organism not typed. It is filed as cell-based. The following applies: HEK-293T, 72 h, read-out: IC50 ± SEM, Junín GP pseudotype.
The next data set concerns Machupo GP. The data set is described as follows: organism not typed. It is filed as cell-based. The following applies: HEK-293T, 72 h, read-out: IC50 ± SEM, Machupo GP pseudotype.
The subject of the next data set is Tacaribe GP. The data set can be described thus: organism not typed. In kind it is cell-based. The following applies: HEK-293T, 72 h, read-out: IC50 ± SEM, Tacaribe GP pseudotype.
A further data set relates to Guanarito GP. The data set is described as follows: organism not typed. The settings on record: HEK-293T, 72 h, read-out: IC50 ± SEM, Guanarito GP pseudotype. It is filed as cell-based.
The next data set relates to Sabia GP. The data set is described as follows: organism not typed. The settings on record: HEK-293T, 72 h, read-out: IC50 ± SEM, Sabia GP pseudotype. In kind it is cell-based.
The test system of the next data set is VSVg. The data set can be described thus: microbe, parasite or virus in culture. The following applies: read-out: IC50 ± SEM, VSV envelope pseudotype. It is filed as cell-based, vesicular stomatitis virus.
A further data set has as its system unselected TCRV. In kind it is cell-based.
The conditions of data set [5]: at 50 μM.
The next data set can be described thus: in vitro. The following applies: human.

As to `COc1ccc(CNc2ccc3c(c2)ncn3-c2ccccc2OC)cc1` [Compound 600190, (4-methoxy-benzyl)-[1-(2-methoxy-phenyl)-1H-benzimidazol-5-yl]-amine], in [1], the specificity is recorded as 3 and the EC50 turned out to be 2000 nM.

Regarding `COc1ccccc1-n1cnc2cc(NCc3ccc(N(C)C)cc3)ccc21` [Compound 600137, (4-dimethylamino-benzyl)-[1-(2-methoxy-phenyl)-1H-benzimidazol-5-yl]-amine], in data set [1], the EC50 was > 12000 nM.

For the compound `CCOc1ccc(CN(c2ccc3c(c2)ncn3-c2ccccc2OC)S(=O)(=O)c2ccc(C)cc2)cc1` [Compound 600179, N-(4-ethoxy-benzyl)-N-[1-(2-methoxy-phenyl)-1H-benzimidazol-5-yl]-4-methylbenzenesulfonamide], in data set [1], the specificity is given as >100 and the EC50 amounted to 110 nM.

In turn, `COc1ccc(CNc2ccc3c(c2)ncn3-c2ccc(OC)cc2)cc1` [Compound 600037, (4-methoxy-benzyl)-[1-(4-methoxy-phenyl)-1H-benzimidazol-5-yl]-amine] displayed a specificity in [1] of 900. Also, the EC50 is 16 nM in data set [1] and < 100 nM in data set [2]. In addition, the half-maximal inhibitory concentration (IC50) in the data set with LASV GP (read-out: average IC50 against LASV GP pseudotypes) was determined as 16 nM.

Regarding `COc1ccc(-n2cnc3cc(N(Cc4ccc(C(C)C)cc4)C(C)=O)ccc32)cc1` [Compound 600362], in [1], the specificity is 40 and the EC50 amounted to 400 nM.

With `COc1ccc(-n2cnc3cc(NCc4ccc(OC)c(OC)c4)ccc32)cc1` [Compound 600172, (3,4-dimethoxy-benzyl)-[1-(4-methoxy-phenyl)-1H-benzimidazol-5-yl]-amine], in [1], the specificity is given as >10 and the EC50 is 700 nM.

In the case of `COc1ccc(-n2cnc3cc(NCc4ccc(Cl)cc4)ccc32)cc1` [Compound 600170, (4-chloro-benzyl)-[1-(4-methoxy-phenyl)-1H-benzimidazol-5-yl]-amine], in data set [1], the specificity is on record as >200 and the EC50 stood at 40 nM.

For the compound `Brc1ccc(CNc2ccc3c(c2)ncn3-c2ccccc2)cc1` [Compound 600173, (4-bromo-benzyl)-(1-phenyl-1H-benzimidazol-5-yl)-amine], in [1], the specificity was >30 and the EC50 turned out to be 400 nM.

Regarding `COc1ccc(-n2cnc3cc(N(Cc4ccc(C(C)C)cc4)S(=O)(=O)c4ccc(C)cc4)ccc32)cc1` [Compound 600363, N-(4-isopropyl-benzyl)-N-[1-(4-methoxy-phenyl)-1H-benzimidazol-5-yl]-4-methylbenzenesulfonamide], in data set [1], the specificity was 100 and the EC50 came out at 200 nM.

With `COc1ccccc1-n1cnc2cc(NCc3cccc(OC)c3OC)ccc21` [Compound 600192, (2,3-dimethoxy-benzyl)-[1-(2-methoxy-phenyl)-1H-benzimidazol-5-yl]-amine], in [1], the specificity entry is listed as “none” and the EC50 came out at 5000 nM.

In the case of `COc1ccc(-n2cnc3cc(NCc4ccccc4OC)ccc32)cc1` [Compound 600146, (2-methoxy-benzyl)-[1-(4-methoxy-phenyl)-1H-benzimidazol-5-yl]-amine], in data set [1], the specificity is given as >40 and the EC50 amounted to 300 nM.

`COc1ccc(-n2cnc3cc(NCc4cccc(OC)c4)ccc32)cc1` [Compound 600191, (3-methoxy-benzyl)-[1-(4-methoxy-phenyl)-1H-benzimidazol-5-yl]-amine]: in [1], the specificity is on record as >300 and the EC50 came to 40 nM.

Turning to `COc1ccc(-n2cnc3cc(NCc4ccc(C)cc4)ccc32)cc1` [Compound 600188, [1-(4-methoxy-phenyl)-1H-benzimidazol-5-yl]-(4-methyl-benzyl)-amine], in data set [1], the specificity is recorded as >4000 and the EC50 was determined as 3 nM.

As to `COc1ccc(CNc2ccc3c(c2)ncn3-c2ccc(C)cc2)cc1` [Compound 600169, (4-methoxy-benzyl)-(1-p-tolyl-1H-benzimidazol-5-yl)-amine], in data set [1], the specificity is reported as >500 and the EC50 was found to be 20 nM.

Take `COc1ccc(-n2cnc3cc(NCc4ccccc4O)ccc32)cc1` [Compound 600153, 2-[[1-(4-methoxy-phenyl)-1H-benzimidazol-5-ylamino]-methyl]-phenol]: in [1], the specificity is given as >60 and the EC50 worked out at 180 nM.

`COc1ccc(-n2cnc3cc(NCc4ccc(C(C)C)cc4)ccc32)cc1` [Compound 600193, (4-isopropyl-benzyl)-[1-(4-methoxy-phenyl)-1H-benzimidazol-5-yl]-amine]: in data set [1], the specificity is reported as 13,000. Further, the EC50 was 1.1 nM in [1], < 100 nM in data set [2], < 1 nM in [3] and 4 nM in [4]. The IC50 in the data set on LASV GP (72 h, read-out: IC50 ± SEM, Lassa (LASV wt) GP pseudotype) amounted to 1.6 ± 0.3 nM; with LCMV GP, 31000 ± 4000 nM; with Pichinde GP, 2600 ± 500 nM; in the data set with Junín GP it was 0.2 ± 0.03 nM; in the data set on Machupo GP it was 2.3 ± 1.3 nM; with Tacaribe GP, 4 ± 2 nM. Also, the IC50 is 0.34 ± 0.07 nM in the data set on Guanarito GP; 12 ± 3 nM with Sabia GP; ~30000 nM in the data set with VSVg (Vesicular stomatitis virus, HEK-293T); 29000 ± 2500 nM in the data set on VSVg. Moreover, the “reduction of TCRV titer” value in the data set on unselected TCRV was found to be 1000 fold. The solubility observation result in data set [5] was “visual evidence of insolubility”. In the data set “in vitro”, this compound registered a CC50 of 48000 nM.

For the compound `CN(C)c1ccc(CNc2ccc3c(c2)ncn3-c2ccccc2)cc1` [Compound 600144, (4-dimethylamino-benzyl)-[1-phenyl-1H-benzimidazol-5-yl]-amine], in data set [1], the specificity is on record as >1 and the EC50 turned out to be 11000 nM.

For the compound `COc1ccc(-n2cnc3cc(NCc4ccc(Br)cc4)ccc32)cc1` [Compound 600145, (4-bromo-benzyl)-[1-(4-methoxy-phenyl)-1H-benzimidazol-5-yl]-amine], in data set [1], the specificity came to 300 and the EC50 was determined as 40 nM.

For the compound `COc1ccc(CNc2ccc3c(c2)ncn3-c2ccccc2)cc1` [Compound 600196, (4-methoxy-benzyl)-(1-phenyl-1H-benzimidazol-5-yl)-amine], in [1], the specificity is >400 and the EC50 worked out at 30 nM.

Take `COc1ccc(-n2cnc3cc(NCc4cccc5ccccc45)ccc32)cc1` [Compound 600149, [1-(4-methoxy-phenyl)-1H-benzimidazol-5-yl]-napthalen-1-ylmethyl-amine]: in [1], the specificity was >200 and the EC50 came out at 60 nM.

For the compound `COc1ccc(-n2cnc3cc(NCc4cccc(OC)c4OC)ccc32)cc1` [Compound 600189, (2,3-dimethoxy-benzyl)-[1-(4-methoxy-phenyl)-1H-benzimidazol-5-yl]-amine], in data set [1], the specificity came out at 100 and the EC50 worked out at 100 nM.

In the case of `CCOc1ccc(CNc2ccc3c(c2)ncn3-c2ccc(OC)cc2)cc1` [Compound 600147, (4-ethoxy-benzyl)-[1-(4-methoxy-phenyl)-1H-benzimidazol-5-yl]-amine], in [1], the specificity was >4000 and the EC50 came to 3 nM.
